Legend:
SOS1 = target: T1, SOS1 (Homo sapiens, UniProt Q07889); experiment: SOS-catalyzed nucleotide exchange assay (HTRF, SOS1-mediated GTP loading of KRAS G12D); assay type: biochemical
T1 construct: adding equal amounts of HIS-SOS1cat (160 nM; Cytoskeleton, US); His; purchased Cytoskeleton, US
T1 sequence (Q07889 564-1049 limits assumed): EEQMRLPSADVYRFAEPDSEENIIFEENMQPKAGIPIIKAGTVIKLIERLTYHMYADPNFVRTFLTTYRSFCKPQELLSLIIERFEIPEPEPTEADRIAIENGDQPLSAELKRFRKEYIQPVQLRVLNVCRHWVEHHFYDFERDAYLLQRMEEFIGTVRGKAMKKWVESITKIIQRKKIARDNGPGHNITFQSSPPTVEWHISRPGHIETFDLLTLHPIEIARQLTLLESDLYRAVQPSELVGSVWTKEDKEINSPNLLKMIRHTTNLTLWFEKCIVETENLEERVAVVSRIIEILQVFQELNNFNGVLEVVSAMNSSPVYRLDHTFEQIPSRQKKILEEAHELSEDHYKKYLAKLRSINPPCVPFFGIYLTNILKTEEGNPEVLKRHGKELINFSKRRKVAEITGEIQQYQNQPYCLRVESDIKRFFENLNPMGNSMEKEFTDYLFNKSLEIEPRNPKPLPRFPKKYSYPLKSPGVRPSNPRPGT
Outline: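 SOS1cat (HIS-tagged) preincubated 10 min at room temperature with compound (128 pM-10 µM), then GST-KRAS G12D with anti-GST terbium added; GTP loading tracked as HTRF with a DY-647P1 GTP analogue after 30 min, buffer HEPES pH 7.4. GEF-free wells for normalization; IC50 derived.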

[1] = test system: lung cancer cell line H358 having the KRAS G12C variant; experiment: SynergyScreen determination of combination concentration (ATPlite 1Step cell viability); assay type: cell-based; conditions: EFFECT20 applied as final treatment concentration in the combination experiment
Procedure: The cells were treated by adding 5 µL of a test solution of Example B01 per well to a 384 well plate in which the lung cancer cell line H358 having the KRAS G12C variant was dispensed so that the final concentration of the substance was 31.6 µM to 0.00316 µM in 50 µL of the solution per well. The cells treated with Example B01 were cultured under conditions of 37 °C and 5% carbon dioxide for 72 h or 120 h. In order to measure cell viability, each well was treated with 24 µL of ATPlite 1Step™ (PerkinElmer) solution, then mixed for 2 minutes, and reacted by blocking light for 5 minutes, and then the luminescence signal was measured using an Envision multilabel reader (PerkinElmer). The cell viability was determined according to the formula below, and the concentration (EFFECT20) of Example B01 that induces 20% cell death was calculated using IDBS XLfit 5. The EFFECT20 concentration of Example B01 determined through the experiment was applied as the final treatment concentration of Example B01 during the combination effect experiment. [formula]
In order to confirm the effect of Example B01 in combination with various anticancer agents, a total of 42 anticancer agents, including cytotoxic anticancer agents and targeted anticancer agents, were used for evaluation (Table 31). […]

KRAS^G12C::SOS1 = target: T2, KRAS^G12C::SOS1 (Homo sapiens, UniProt Q07889); experiment: KRAS G12C::SOS1 protein-protein interaction (PPI) inhibition assay (HTRF binding kit)
T2 sequence (Q07889 1-1333): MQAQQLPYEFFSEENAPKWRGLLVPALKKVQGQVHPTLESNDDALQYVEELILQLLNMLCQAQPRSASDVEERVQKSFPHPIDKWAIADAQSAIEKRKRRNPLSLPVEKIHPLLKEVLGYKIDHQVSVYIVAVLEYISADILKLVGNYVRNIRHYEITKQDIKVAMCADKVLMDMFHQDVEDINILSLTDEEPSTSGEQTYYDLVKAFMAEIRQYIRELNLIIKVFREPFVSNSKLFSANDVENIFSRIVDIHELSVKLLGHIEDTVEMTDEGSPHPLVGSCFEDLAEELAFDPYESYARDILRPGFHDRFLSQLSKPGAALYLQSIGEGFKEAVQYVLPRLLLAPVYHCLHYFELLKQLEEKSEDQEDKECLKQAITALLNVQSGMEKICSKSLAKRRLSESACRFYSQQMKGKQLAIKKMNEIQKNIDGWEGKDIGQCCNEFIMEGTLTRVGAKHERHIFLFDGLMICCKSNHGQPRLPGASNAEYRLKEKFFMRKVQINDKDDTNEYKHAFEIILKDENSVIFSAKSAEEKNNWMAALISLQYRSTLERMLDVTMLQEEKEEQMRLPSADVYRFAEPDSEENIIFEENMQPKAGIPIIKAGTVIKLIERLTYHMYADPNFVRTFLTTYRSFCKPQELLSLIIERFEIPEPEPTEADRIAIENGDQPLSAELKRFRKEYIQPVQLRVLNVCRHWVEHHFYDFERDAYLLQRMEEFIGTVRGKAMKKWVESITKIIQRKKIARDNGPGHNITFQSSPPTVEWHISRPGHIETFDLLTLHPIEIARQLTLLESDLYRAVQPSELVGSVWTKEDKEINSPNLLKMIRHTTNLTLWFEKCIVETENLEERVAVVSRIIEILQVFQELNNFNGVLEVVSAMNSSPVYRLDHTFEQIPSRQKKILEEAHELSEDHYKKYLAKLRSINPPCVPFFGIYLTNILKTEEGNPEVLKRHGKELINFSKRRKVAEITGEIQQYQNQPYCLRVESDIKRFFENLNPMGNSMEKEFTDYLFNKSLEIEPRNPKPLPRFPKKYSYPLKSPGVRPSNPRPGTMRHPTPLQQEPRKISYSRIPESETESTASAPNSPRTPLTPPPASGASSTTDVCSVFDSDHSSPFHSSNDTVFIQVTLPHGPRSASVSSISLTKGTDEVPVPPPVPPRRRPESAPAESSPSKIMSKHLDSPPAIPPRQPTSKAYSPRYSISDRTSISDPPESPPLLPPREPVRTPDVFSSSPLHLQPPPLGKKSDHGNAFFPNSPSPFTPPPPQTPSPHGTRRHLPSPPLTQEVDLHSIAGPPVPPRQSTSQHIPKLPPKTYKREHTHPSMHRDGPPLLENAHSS

[2] = Cell viability with a combined anticancer agent plus Example B01 (Synergy 1 / Synergy 2); assay type: cell-based; conditions: culture time 72 h; printed in the anticancer agent concentration column

| SMILES | IC50 (SOS1) | concentration (EFFECT20) that induces 20% cell death ([1]; culture time 72 h) | concentration (EFFECT20) that induces 20% cell death ([1]; culture time 120 h) | IC50 (KRAS^G12C::SOS1) | concentration dependence of the effect of the anticancer agent on cell viability [2] |
| --- | --- | --- | --- | --- | --- |
| C[C@@H](NC(=O)c1ccc(=O)n(-c2cncc(-c3cnnn3C)c2)n1)c1cccc(C(F)(F)F)c1F [Example B01, N-[(1R)-1-[2-fluoro-3-(trifluoromethyl)phenyl]ethyl]-1-[5-(3-methyltriazol-4-yl)-3-pyridyl]-6-oxo-pyridazine-3-carboxamide] | < 1000 nM | 1854 nM | 652 nM | < 1000 nM |  |
| C[C@]12C=CC(=O)C=C1CC[C@@H]1[C@@H]2[C@@H](O)C[C@@]2(C)[C@H]1CC[C@]2(O)C(=O)CO [Prednisolone, prednisolone] |  |  |  |  | No concentration -dependent change |

Source: patent EP4667458A1 (Kanaph Therapeutics Inc., priority 2023, dated 2024)
